Data from the supplement of paper PMC10307832.

Tests used:
Test in all cases: relative viability (nuclei count vs DMSO), 5 days (fraction); higher = more cells survive
Sorafenib = compound: CNC(=O)c1cc(Oc2ccc(NC(=O)Nc3ccc(Cl)c(C(F)(F)F)c3)cc2)ccn1 [Sorafenib]
In short: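 Viability was defined as treated-well nuclei divided by vehicle-well nuclei, with the median taken over replicate plates. Cells from lung cancer lines sat overnight at 37 °C in 1536-well plates, received five √10-spaced library-drug doses by pinning on vehicle-anchored plates, and grew 5 days without medium change before one-step fixation, permeabilisation and Hoechst staining, 4× imaging and MetaXpress nuclear counts. Only plates with control CV under 25% and at least one doubling were kept.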

Sorafenib + Palbociclib = compound: CNC(=O)c1cc(Oc2ccc(NC(=O)Nc3ccc(Cl)c(C(F)(F)F)c3)cc2)ccn1 [Sorafenib] + CC(=O)c1c(C)c2cnc(Nc3ccc(N4CCNCC4)cn3)nc2n(C2CCCC2)c1=O [Palbociclib] (partner 0.5 µM)
In short: (§1)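 Lung cancer cell lines in 1536-well plates were dosed by pin tool the day after seeding, either with one drug alone or with a fixed anchor-drug dose plus five library-drug doses (not always all listed) in √10 steps. After 5 days, cells were fixed and their nuclei stained in one step (final 0.05% Triton X-100, 1% formaldehyde, 1 ug/ml Hoechst), then counted on 4× images. Relative viability is the nuclei count in treated wells divided by that in vehicle wells. Values are medians of duplicate plates.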

Sorafenib + Foretinib = compound: CNC(=O)c1cc(Oc2ccc(NC(=O)Nc3ccc(Cl)c(C(F)(F)F)c3)cc2)ccn1 [Sorafenib] + COc1cc2c(Oc3ccc(NC(=O)C4(C(=O)Nc5ccc(F)cc5)CC4)cc3F)ccnc2cc1OCCCN1CCOCC1 [Foretinib] (partner 0.25 µM)
In short: as §1

Sorafenib + Lapatinib = compound: CNC(=O)c1cc(Oc2ccc(NC(=O)Nc3ccc(Cl)c(C(F)(F)F)c3)cc2)ccn1 [Sorafenib] + CS(=O)(=O)CCNCc1ccc(-c2ccc3ncnc(Nc4ccc(OCc5cccc(F)c5)c(Cl)c4)c3c2)o1 [Lapatinib] (partner 2 µM)
In short: as §1

Sorafenib + Olaparib = compound: CNC(=O)c1cc(Oc2ccc(NC(=O)Nc3ccc(Cl)c(C(F)(F)F)c3)cc2)ccn1 [Sorafenib] + O=C(c1cc(Cc2n[nH]c(=O)c3ccccc23)ccc1F)N1CCN(C(=O)C2CC2)CC1 [Olaparib] (partner 8 µM)
In short: as §1

Row | Cell Line | relative viability (Sorafenib; 0.08 µM) | relative viability (Sorafenib; 0.253 µM) | relative viability (Sorafenib; 2.53 µM) | relative viability (Sorafenib; 8 µM) | relative viability (Sorafenib + Palbociclib; first compound 0.08 µM) | relative viability (Sorafenib + Palbociclib; first compound 0.253 µM) | relative viability (Sorafenib + Palbociclib; first compound 2.53 µM) | relative viability (Sorafenib + Palbociclib; first compound 8 µM) | relative viability (Sorafenib + Foretinib; first compound 0.08 µM) | relative viability (Sorafenib + Foretinib; first compound 0.253 µM) | relative viability (Sorafenib + Foretinib; first compound 2.53 µM) | relative viability (Sorafenib + Foretinib; first compound 8 µM) | relative viability (Sorafenib + Lapatinib; first compound 0.08 µM) | relative viability (Sorafenib + Lapatinib; first compound 0.253 µM) | relative viability (Sorafenib + Lapatinib; first compound 2.53 µM) | relative viability (Sorafenib + Lapatinib; first compound 8 µM) | relative viability (Sorafenib + Olaparib; first compound 0.08 µM) | relative viability (Sorafenib + Olaparib; first compound 0.253 µM) | relative viability (Sorafenib + Olaparib; first compound 2.53 µM) | relative viability (Sorafenib + Olaparib; first compound 8 µM)
1 | NCI-H1915 | 0.956 | 0.894 | 0.934 | 0.945 | 0.54 | 0.574 | 0.581 | 0.413 | 1.08 | 0.969 | 1.03 | 1.09 | 0.932 | 0.879 | 0.943 | 0.951 | 0.283 | 0.226 | 0.266 | 0.271
2 | NCI-H1793 | 1.06 | 0.944 | 1.15 | 0.596 | 0.354 | 0.376 | 0.465 | 0.411 | 0.76 | 0.853 | 1.12 | 0.798 | 0.71 | 0.833 | 0.949 | 0.221 | 1.05 | 0.836 | 0.84 | 0.661
3 | NCI-H1734 |  | 0.97 | 0.909 | 0.618 | 0.376 | 0.329 | 0.37 | 0.275 | 1.05 | 0.769 | 0.682 | 0.41 | 1.06 | 0.991 | 0.951 | 0.663 | 0.609 | 0.541 | 0.563 | 0.601
4 | LOU-NH91 | 1.1 | 0.967 | 1.17 |  | 0.533 | 0.52 | 0.55 | 0.533 | 1.02 | 0.973 | 1.08 | 0.942 |  | 0.71 | 0.829 | 0.728 | 0.936 | 0.975 | 0.96 | 0.657
5 | HARA | 1.17 | 0.79 | 1.07 | 0.767 | 0.295 | 0.286 | 0.303 | 0.339 | 0.967 | 0.916 | 0.898 | 0.889 | 0.838 | 0.625 | 0.825 | 0.638 | 0.868 | 0.794 | 0.391 | 0.478
6 | NCI-H520 | 0.93 | 0.823 |  | 0.75 | 0.192 | 0.208 | 0.225 | 0.172 | 0.71 | 0.71 | 0.736 | 0.406 | 0.92 | 0.71 | 0.919 | 0.402 | 0.356 | 0.281 | 0.313 | 0.126
7 | NCI-H358 | 1.04 | 1.05 | 1.01 | 0.688 | 0.137 | 0.127 | 0.182 | 0.128 | 0.786 | 0.723 |  | 0.489 | 0.453 | 0.45 | 0.558 | 0.519 | 0.551 | 0.491 | 0.368 | 0.375
8 | LK-2 | 1.09 | 0.766 | 0.848 | 0.494 | 0.703 | 0.588 | 0.528 | 0.542 | 1.06 | 1 | 0.976 | 0.747 | 1.22 | 0.804 | 0.906 | 0.671 | 0.674 | 0.734 | 0.575 | 0.346
